Reference: US20050038015A1, “Partial dopamine-D 2 receptor agonist plus serotonin and/oder noradrenaline inhibitor activity” (priority 2002, published 2005)
Where two headings read alike, the source gives them in different places.

What was measured:
[1] = tested on: dialysate serotonin in the nucleus accumbens; test: In vivo microdialysis, dialysate serotonin; conditions: awake freely moving rat; for ED150: p.o. or i.p. (italic); for [serotonin] ED75 (footnote 1): footnote 1: ED75 instead of ED150
Method: (§1) Microdialysis allows an insight into changes in neurotransmitters and their metabolites in the brain extracellular space in discrete brain regions in awake freely moving animals. […] The in vivo effects of the (mixtures of) compounds of the invention on dopamine, serotonin and noradrenalin levels were determined by microdialysis according to the protocol given below:
(§2) Dopamine and Serotonin Measurements by In Vivo Microdialysis
(§3) Surgery. […] Antibacterial agents and analgesics were administered prior to (Baytril (150 μl/rat i.m.)) and after (Temgesic (0.005-0.01 mg/kg i.m. non-diluted/rat)) surgery. […] In other animals, the skull is exposed and a 1 mm bore-hole is drilled through the bone above the prefrontal cortex (co-ordinates from bregma (mm): anterior-posterior +3.2, mediolateral 0.6 and dorsoventral −1.5 at a 0° angle (from dura)) in those animals where determination of dialysate noradrenaline levels is required. Smaller bore holes are made and three screws are inserted within the skull. The intracerebral guide cannula (CMA, Carnegie) is lowered through the hole until the tip is immediately above the nucleus accumbens or prefrontal cortex. The guide together with the screws are cemented onto the bone with dental cement and the surrounding skin sutured. Animals are allowed to recover at least six days prior to microdialysis experimentation.
(§4) Microdialysis experimentation. On the day of the experiment microdialysis probes (CMA 12, 0.5 mm outer diameter, Stockholm, Sweden) are inserted through the guide cannula into the nucleus accumbens (2 mm membrane length) or prefrontal cortex (4 mm membrane length). The Inlet of the probe is connected with low volume tubing (F.E.B-tubing, 1.2 μl/10 cm, Carnegie) via a liquid-swivel (dual channel; Instech, UK) on a counterbalanced arm, to a syringe-pump (Harvard, 10 channel). […] The outlet of the probe is connected with low volume tubing via the liquid swivel to a CMA 140 fraction collector. The tubing is supported by a stainless steel wire which leads from the swivel down to a clip, which fits to a collar around the neck of an animal. […] Samples are collected at a flow rate of 2 μl/min at 20 min intervals (40 μl volume) in vials containing 50 μl of a HCOOH/cysteine solution (0.02M/0.2 w/v %) to prevent oxidation of the compounds. Following a baseline period of 5 samples, drugs are administered systemically and at least a further 8 samples collected. All samples were stored post-collection on dry ice and frozen at […] prior to analysis by high-performance liquid chromatography (HPLC) coupled to electrochemical detection described below.
(§5) Analysis of dialysate dopamine and serotonin. […] The final pH was adjusted to 4.9 with 1N NaOH. Dopamine and serotonin are electrochemically detected with an EG&G (model 400, Princeton Applied Research) controller equipped with a glassy carbon working electrode (VT-03; Antec, Leiden, the Netherlands). The potential is set at 600 mV versus an Ag/AgCl reference electrode. The output is recorded on a computer equipped with Hyperchem™ (Hewlett-Packard Inc.) which measures peak height values. Calculations (μg/20 min) are made using peak height values of analysed standard solutions containing known amounts of dopamine and serotonin. Analysis of dialysate dopamine and noradrenaline. […] The basal mobile phase consists of: 50 mM NaAc, and 0.27 mM EDTA. The final concentration of 1-octanesulfonic acid (NOS) and methanol, as well as the final pH (adjusted with HAc), vary with the different brain areas under examination. The compounds are electrochemically detected with an EG&G (model 400, Princeton Applied Research) controller equipped with a glassy carbon working electrode (VT-03; Antec, Leiden, the Netherlands). The potential is set at 450 mV versus a Hyref reference electrode.

[2] = tested on: noradrenaline levels in the prefrontal cortex; test: In vivo microdialysis, dialysate noradrenaline; conditions: awake freely moving rat, p.o. or i.p. (italic)
Method: as §1, §2, §3
Microdialysis experimentation. On the day of the experiment microdialysis probes (CMA 12, 0.5 mm outer diameter, Stockholm, Sweden) are inserted through the guide cannula into the nucleus accumbens (2 mm membrane length) or prefrontal cortex (4 mm membrane length). The Inlet of the probe is connected with low volume tubing (F.E.B-tubing, 1.2 μl/10 cm, Carnegie) via a liquid-swivel (dual channel; Instech, UK) on a counterbalanced arm, to a syringe-pump (Harvard, 10 channel). […] The outlet of the probe is connected with low volume tubing via the liquid swivel to a CMA 140 fraction collector. […]
Analysis of dialysate dopamine and serotonin. […] Dopamine and serotonin are electrochemically detected with an EG&G (model 400, Princeton Applied Research) controller equipped with a glassy carbon working electrode (VT-03; Antec, Leiden, the Netherlands). […] The output is recorded on a computer equipped with Hyperchem™ (Hewlett-Packard Inc.) which measures peak height values. Calculations (μg/20 min) are made using peak height values of analysed standard solutions containing known amounts of dopamine and serotonin. […] The compounds are electrochemically detected with an EG&G (model 400, Princeton Applied Research) controller equipped with a glassy carbon working electrode (VT-03; Antec, Leiden, the Netherlands). […]

[3] = tested on: dialysate dopamine in the nucleus accumbens; test: In vivo microdialysis, dialysate dopamine; set-up: species or system rat; conditions: read-out: [dopamine] ED75
Method: as §1, §2, §3, §4, §5

serotonin reuptake sites = target: T1, serotonin reuptake sites (Rattus norvegicus, UniProt P31652); test: In vitro functional inhibition of [3H]-serotonin reuptake in rat brain synaptosomes; assay type: biochemical
T1 construct: the cerebral hemispheres were rapidly removed and a P2-synaptosomal fraction was prepared; from tissue; host or cells: rat (Wistar) cerebral hemispheres, P2-synaptosomal fraction
Method: (§6) The in vitro functional activity at dopamine-D2 receptors, Including the intrinsic activity (ε) of the compounds which can be used according to the invention as well as relevant reference compounds was measured by their ability to inhibit forskolin-induced [^3H]cAMP accumulation. Serotonin and noradrenaline reuptake inhibitory activity was measured In rat brain synaptosomes.
In Vitro Functional Inhibition of [^3H]-serotonin Reuptake
Synaptosomes were pre-incubated in absence or presence of the test compound for 15 min at 37° C., in a medium containing the monoamine oxidase inhibitor pargyline (7 μM). Subsequently, the synaptosomes were exposed to [^3H]-serotonin ([…] final concentration) for 10 min.
(§7) [^3H]-serotonine uptake was stopped by filtration with a harvester and the non-incorporated radioactivity was removed by an extensive washing programme. The filter plates with synaptosomes were dehydrated and the amount of [^3H]-serotonin present was determined by Betaplate liquid scintillation counting.

[4] = target: noradrenaline reuptake sites (Rattus norvegicus, UniProt Q9WTR4); test: In vitro functional inhibition of [3H]-noradrenalin reuptake in rat hypothalamus synaptosomes; assay type: biochemical
Method: as §6
Synaptosomes were pre-incubated in absence or presence of the test compound for 10 min at 37° C., in a medium containing the monoamine oxidase inhibitor pargyline (7 μM). Subsequently, the synaptosomes were exposed to [^3H]-noradrenaline ([…] final concentration) for 15 min.
as §7, with “[^3H]-noradrenaline” for “[^3H]-serotonine”, “[^3H]-noradrenaline” for “[^3H]-serotonin”

[5] = target: human dopamine D2,L receptors (Homo sapiens, UniProt P14416); test: Inhibition of forskolin-induced [3H]-cAMP accumulation in CHO-K1 cells
[6] = nucleus accumbens, awake freely moving rat, p.o. or i.p. (italic)
[7] = rat brain synaptosomes, read-out: 5-HT uptake pIC50 (converted)
[8] = fraction of full agonism (ε = 1, quinpirole)

T1 sequence (P31652 whole entry): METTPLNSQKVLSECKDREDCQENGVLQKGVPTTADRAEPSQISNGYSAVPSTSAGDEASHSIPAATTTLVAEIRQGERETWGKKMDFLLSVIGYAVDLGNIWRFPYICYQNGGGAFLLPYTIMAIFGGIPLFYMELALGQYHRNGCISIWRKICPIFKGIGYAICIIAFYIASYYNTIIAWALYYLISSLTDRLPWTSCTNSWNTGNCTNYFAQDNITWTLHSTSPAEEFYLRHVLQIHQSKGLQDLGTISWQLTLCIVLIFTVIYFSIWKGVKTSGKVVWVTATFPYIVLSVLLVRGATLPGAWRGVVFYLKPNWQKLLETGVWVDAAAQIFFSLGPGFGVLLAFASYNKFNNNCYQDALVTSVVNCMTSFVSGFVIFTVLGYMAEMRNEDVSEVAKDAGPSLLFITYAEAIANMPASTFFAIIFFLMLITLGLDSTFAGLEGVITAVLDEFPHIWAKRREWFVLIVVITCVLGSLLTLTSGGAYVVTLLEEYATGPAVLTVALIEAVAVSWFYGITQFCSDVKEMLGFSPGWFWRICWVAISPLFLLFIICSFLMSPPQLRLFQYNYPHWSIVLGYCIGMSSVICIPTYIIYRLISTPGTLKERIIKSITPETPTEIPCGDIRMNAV
human dopamine D2,L receptors, sequence (P14416 whole entry): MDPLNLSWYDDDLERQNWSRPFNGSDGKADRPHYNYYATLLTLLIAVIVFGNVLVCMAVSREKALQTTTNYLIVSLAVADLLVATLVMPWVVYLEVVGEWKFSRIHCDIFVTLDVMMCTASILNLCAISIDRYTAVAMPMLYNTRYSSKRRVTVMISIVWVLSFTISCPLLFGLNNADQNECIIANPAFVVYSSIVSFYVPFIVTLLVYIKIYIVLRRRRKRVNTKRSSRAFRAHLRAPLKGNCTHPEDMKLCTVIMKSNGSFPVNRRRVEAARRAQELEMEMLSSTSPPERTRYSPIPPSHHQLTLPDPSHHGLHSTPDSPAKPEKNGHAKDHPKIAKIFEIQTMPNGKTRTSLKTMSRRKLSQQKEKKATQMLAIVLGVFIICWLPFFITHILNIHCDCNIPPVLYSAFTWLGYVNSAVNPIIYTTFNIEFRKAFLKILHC

IC50 (serotonin reuptake sites; [7]) | NA uptake pIC50 ([4]; rat hypothalamus synaptosomes) | cAMP accum. ε (intrinsic activity) [5, 8] | SMILES | ED150 [1] | ED75 [3, 6] | EC50 [5] | cAMP accum. ε (intrinsic activity) [5] | further results
126 nM | <5.0 | 0.27 | Cn1cc(CCCN2CCN(c3cccc4[nH]c(=O)oc34)CC2)c2cc(F)ccc21 [example 1a] | 2.52 mg/kg | 8.14 mg/kg | > 1000 nM | – | –
> 10000 nM | 5.2 | 0.27 | O=c1[nH]c2cccc(N3CCN(CCCc4cn5c6c(cc(F)cc46)CCC5)CC3)c2o1 [example 1b] | – | – | – | – | –
398 nM | <5.0 | 0.56 | Cc1cccc2c(CCCN3CCN(c4cccc5[nH]c(=O)oc45)CC3)c[nH]c12 [example 1d] | – | – | < 1 nM | – | –
251 nM | <5.0 | 0.60 | O=c1[nH]c2cccc(N3CCN(CCCc4c[nH]c5ccccc45)CC3)c2o1 [example 1e] | – | – | < 1 nM | – | –
25.1 nM | <5.0 | 0.53 | O=c1[nH]c2cccc(N3CCN(CCCc4c[nH]c5ccc(F)cc45)CC3)c2o1 [example 1c] | 14.8 mg/kg | 3.92 mg/kg | 158 nM | – | –

The next lines start with the molecule.

SMILES | IC50 (serotonin reuptake sites; [7]) | NA uptake pIC50 ([4]; rat hypothalamus synaptosomes) | cAMP accum. ε (intrinsic activity) [5, 8] | ED150 [1] | ED75 [3, 6] | EC50 [5] | cAMP accum. ε (intrinsic activity) [5] | further results
CCOc1ccccc1OC(c1ccccc1)C1CNCCO1 (stereo not drawn) [reboxetine] | – | – | – | > 3 mg/kg | > 3 mg/kg | – | – | [noradren] ED150 [2]: <3.0 mg/kg
COCCCC/C(=N\OCCN)c1ccc(C(F)(F)F)cc1 [fluvoxamine] | – | 5.3 | 0.10 | – | – | > 1000 nM | – | –
C=CCN1CCc2nc(N)sc2CC1 [talipexole] | – | – | – | > 10 mg/kg | < 0.1 mg/kg | 39.8 nM | 1.00 | IC50 (serotonin reuptake sites): > 10000 nM; NA uptake pIC50 [4]: <5.0; agonist properties at human dopamine D2 receptors (FIG. 2 upper panel) [5]: full agonists
O=c1[nH]c2cccc(N3CCN(Cc4cccc(-c5ccccc5)c4)CC3)c2o1 [bifeprunox] | 15800 nM | 4.6 | – | – | – | 15.8 nM | 0.20 | [serotonin] ED75 (footnote 1) [1]: >10^1 mg/kg; ED75 ([3]; Rattus norvegicus): > 10 mg/kg
CNCCCN1c2ccccc2CCc2ccccc21 [DMI] | – | – | – | > 3 mg/kg | > 3 mg/kg | > 1000 nM | 0.12 | [noradren] ED150 [2]: 1.64 mg/kg
CCCN1CCC[C@@H](c2cccc(O)c2)C1 [preclamol] | > 10000 nM | 5.3 | 0.36 | > 30 mg/kg | 14.5 mg/kg | – | – | –
CCCN1CCC[C@@H]2Cc3n[nH]cc3C[C@H]21 [quinpirole] | – | – | – | > 3 mg/kg | 0.04 mg/kg | – | – | –
Fc1ccc([C@@H]2CCNC[C@H]2COc2ccc3c(c2)OCO3)cc1 [paroxetine] | – | – | – | < 10 mg/kg | > 10 mg/kg | > 1000 nM | 0.36 | NA uptake pIC50 [4]: <5.0
CCN(CC)C(=O)N[C@H]1C[C@@H]2c3cccc4[nH]cc(c34)C[C@H]2N(C)C1 [terguride] | > 10000 nM | <5.0 | 0.38 | > 10 mg/kg | > 10 mg/kg | 0.398 nM | – | agonist properties at human dopamine D2 receptors (FIG. 2 upper panel) ([5]; agonist mode): partial agonists; antagonist effects against the reference agonist quinpirole (FIG. 2 lower panel) ([5]; antagonist mode versus quinpirole): partial antagonists
CCN(CC)C(=O)C1(c2ccccc2)CC1CN (stereo not drawn) [milnacipran] | – | – | – | 5.5 mg/kg | > 30 mg/kg | > 1000 nM | 0.21 | IC50 (serotonin reuptake sites): 251 nM; NA uptake pIC50 [4]: 5.5; [noradren] ED150 [2]: 2.41 mg/kg
CN1CCN(c2cccc3[nH]c(=O)oc23)CC1 [SLV 308] | > 10000 nM | <5.0 | – | – | 0.04 mg/kg | 31.6 nM | – | [serotonin] ED75 (footnote 1) [1]: 0.45^1 mg/kg; [noradren] ED150 [2]: 0.53 mg/kg; EC50 ([5]; pEC50 (inhibition of cAMP formation)): 10 nM
